Values quoted from earlier work, collected in patent publication US7973084B2, “Molecular transporters based on alditol or inositol and processes for the preparation thereof” (Postech Academy-Industrial Foundation, priority 2005, dated 2011).

Test system: Jurkat cells

| Substance | uptake by Jurkat cells (determined using FACS) | effectiveness in the transportation across a biological membrane relative to Tat protein (49-57 a.a.) (compared with Tat protein (49-57 a.a.)) |
| --- | --- | --- |
| D-arginine nonamer | much more effective |  |
| L-arginine nonamer |  | 20 times |
